In US8426179B2, “Synthetic peptide and peptide conjugates and related tissue coupling methods via transglutaminase enzyme” (priority 2007, dated 2013):

Tests used:
[1] = tested on: articular surface of cartilage; assay: Coupling of hydrocortisone prodrugs to the articular surface of cartilage via tTG; format: biochemical, bovine; details: 1.0 mM prodrug with tTG, immunohistochemistry and quantification
Protocol: Modified tissue samples were immersed in tissue freezing media and frozen at −80° C. until use. Tissue slices (25 μm thick) were cut using a cryostat (Microm HM505N, Carl Zeiss) and the freezing media was removed with 3 washes of Buffer 1. Blocking was performed with 4% goat serum in Buffer 1 (blocking buffer) for 1 hour at room temperature. The tissue sections were then incubated with 10 μg/mL mouse anti-hydrocortisone antibody for 1.5 h in the blocking buffer at room temperature, rinsed 3 times with Buffer 1 for 5 minutes each, and then incubated with fluorescein conjugated goat anti-mouse antibody (1/200) in blocking buffer for 1 hour. Samples were rinsed again with Buffer 1 and then imaged using a Leica epifluorescent microscope (λex=495 nm, λem=520 nm for fluorescein) and a SPOT RT digital camera (Diagnostic Instruments, Sterling Heights, Mich.).

[2] = Hydrolysis of the hydrocortisone prodrugs in solution (buffers); format: physicochemical; details: Buffer 1, 4° C.
Protocol: This solution also contained 2 mM 6α-methyl prednisolone as an internal standard. The samples were then stored at −20° C. until analyzed with RP-HPLC and eluted with a linear gradient of 24-55% acetonitrile in water with 0.1% TFA. The amount of hydrocortisone hydrolyzed from the prodrug was determined by comparing its peak area to that of 6α-methyl prednisolone. […] Thirty microliter samples were collected at 10, 20, 30, and 60 minutes and analyzed as previously described.

For hydrocortisone-GFKG-PEG [TRIP-PC], the “bound hydrocortisone, TRIP-C compared with TRIP-PC” value [1] was “no detectable difference in bound hydrocortisone” and the T50% of hydrolysis [2] was 57.8 h.
